1 molecule from article PMC2997912 (Molecular pharmaceutics, 2010) can be followed below.

This assay deals with T1, hASBT (Homo sapiens, UniProt Q12908).
T1 sequence (Q12908 1-348): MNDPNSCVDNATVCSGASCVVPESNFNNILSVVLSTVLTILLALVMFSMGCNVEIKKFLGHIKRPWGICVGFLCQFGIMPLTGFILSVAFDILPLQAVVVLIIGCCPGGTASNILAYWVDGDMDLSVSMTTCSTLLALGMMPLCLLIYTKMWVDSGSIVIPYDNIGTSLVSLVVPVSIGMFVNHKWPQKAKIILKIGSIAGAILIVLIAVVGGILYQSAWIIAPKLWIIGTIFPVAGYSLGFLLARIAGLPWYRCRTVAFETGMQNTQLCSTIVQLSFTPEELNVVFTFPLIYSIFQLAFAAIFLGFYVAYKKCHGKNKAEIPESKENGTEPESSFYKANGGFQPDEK
Description: Conjugate uptake into hASBT-MDCK cells in the presence of sodium. It counts as cell-based.

Take `C[C@H](CCC(=O)NCCS(=O)(=O)O)[C@H]1CC[C@H]2[C@@H]3[C@H](O)C[C@@H]4C[C@H](O)CC[C@]4(C)[C@H]3C[C@H](O)[C@]12C` [taurocholate, Taurocholate]: the Vmax is recorded as 0.699 pmol/cm^2/s.
